The source of these data is ChEMBL document CHEMBL1201862, “PubChem BioAssay data set” (2004).

Molecules are shown by their SMILES.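 Exposure lasted 48 hours, with cells grown in 96-well plates and compounds tested at five concentrations. The concentration for 50% growth inhibition is given as GI50.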 Calls of active or inactive are those of the source. Rule as the data show it: active = GI50 up to about 1.1 µM and inactive = higher. Peptide text beside a SMILES is read from it. * marks the point of attachment. Boc = CC(C)(C)OC(=O)*; OBn = c1ccc(CO*)cc1 Bounds are passed on as bounds.

Some test systems named below: SNB-75; HCT-15; IGROV-1; NCI-H226; Malme-3M; SK-OV-3; OVCAR-5; OVCAR-8; LOX IMVI; A549; SNB-19; SN12C; HCC 2998; KM12; SW-620; MCF7; PC-3; MDA-MB-435; Hs-578T; T47D.
What all share (experiment): NCI anticancer screen, dose series, 48 h

For `Cc1ccc2c(C)c3ccc4ccccc4c3c[n+]2c1.[O-][Cl+3]([O-])([O-])[O-]`, the GI50 is 11.2 µM (inactive) in the assay with SNB-75; 52.1 µM with HCT-15; 31.4 µM (inactive) with IGROV-1; 5.81 µM (inactive) in the assay on NCI-H226; 2.88 µM (inactive) in the assay with Malme-3M; 17.7 µM (inactive) in the assay with SK-OV-3. Further, the GI50 in the assay on OVCAR-5 is 51.3 µM (inactive); in the assay on OVCAR-8, 10 µM (inactive); in the assay with LOX IMVI, 34.6 µM (inactive); in the assay on A549, 16.3 µM (inactive); in the assay with SNB-19, 6.46 µM (inactive); in the assay with SN12C, 4.68 µM (inactive). For the same compound, the GI50 was 12.9 µM (inactive) with HCC 2998, 2.94 µM (inactive) in the assay with KM12 and 10.1 µM (inactive) with SW-620.

Regarding `CCN(N=O)C1C2(CCCC2)NC(=O)C12CCCC2` (stereo not given), the GI50 with SNB-75 is > 100 µM (inactive); with HCT-15 it was more than 100 µM; in the assay on IGROV-1, > 100 µM (inactive); in the assay on NCI-H226 it was > 100 µM (inactive); in the assay with Malme-3M it was > 100 µM (inactive); in the assay on SK-OV-3, > 100 µM (inactive). In addition, the GI50 with OVCAR-5, in the assay with OVCAR-8, with LOX IMVI, in the assay with A549, in the assay with SNB-19 and in the assay with SN12C was > 100 µM (inactive) each time. Further, the GI50 in the assay with HCC 2998, in the assay on KM12 and in the assay on SW-620 was > 100 µM (inactive) throughout.

Take `O=C(NCc1ccccc1Cl)c1c(O)c2ccccc2[nH]c1=O`: the GI50 with SNB-75 was 21.6 µM (inactive); in the assay on HCT-15 it was 42.8 µM; with IGROV-1, 24.6 µM (inactive); in the assay with NCI-H226, 44.7 µM (inactive); with Malme-3M, > 100 µM (inactive); in the assay with MCF7 it was > 100 µM (inactive). Besides, the GI50 in the assay with PC-3 was 64.9 µM (inactive); with OVCAR-5 it was > 100 µM (inactive); in the assay with OVCAR-8 it was 75 µM (inactive); with LOX IMVI, > 100 µM (inactive); in the assay with A549 it was 77.8 µM (inactive); with SNB-19, 39.4 µM (inactive). Moreover, the GI50 is > 100 µM (inactive) in the assay with SN12C; 33.3 µM (inactive) in the assay with HCC 2998; > 100 µM (inactive) with KM12; 36 µM (inactive) with MDA-MB-435; 24.9 µM (inactive) in the assay with SW-620; 25.9 µM (inactive) with Hs-578T.

For the compound `CC1=C(c2ccc(C)cc2)NC(=S)C(C)C(c2ccc(C)cc2)=N1` (stereo not given), the GI50 was > 100 µM (inactive) in the assay on SNB-75; 82.8 µM with HCT-15; > 100 µM (inactive) in the assay on IGROV-1; > 100 µM (inactive) with NCI-H226; 59 µM (inactive) with Malme-3M; 37.1 µM (inactive) in the assay with T47D. Besides, the GI50 is 42 µM (inactive) in the assay on MCF7; > 100 µM (inactive) in the assay with SK-OV-3; > 100 µM (inactive) in the assay with OVCAR-5; > 100 µM (inactive) in the assay with OVCAR-8; 76.2 µM (inactive) with LOX IMVI; 81.5 µM (inactive) in the assay with A549. For the same compound, the GI50 was > 100 µM (inactive) in the assay with SNB-19; > 100 µM (inactive) in the assay with SN12C; 89.3 µM (inactive) with HCC 2998; 49.7 µM (inactive) in the assay on KM12; 72.9 µM (inactive) in the assay with MDA-MB-435; > 100 µM (inactive) in the assay on SW-620.

In the case of `CCOC(=O)C1C2CCC1CC(=NNc1ccc([N+](=O)[O-])cc1[N+](=O)[O-])C2` (stereo not given), the GI50 in the assay on SNB-75 is 18 µM (inactive); in the assay with HCT-15, more than 50 µM; in the assay with IGROV-1, > 50 µM (inactive); in the assay with NCI-H226, 37.4 µM (inactive); with Malme-3M it was > 50 µM (inactive); in the assay on MCF7, > 50 µM (inactive). Besides, the GI50 is > 50 µM (inactive) in the assay on SK-OV-3; 39.6 µM (inactive) in the assay with PC-3; > 50 µM (inactive) in the assay on OVCAR-5; > 50 µM (inactive) in the assay with OVCAR-8; > 50 µM (inactive) in the assay on LOX IMVI; 37.6 µM (inactive) in the assay on A549. Besides, the GI50 in the assay on SNB-19 was > 50 µM (inactive); in the assay on SN12C, > 50 µM (inactive); with HCC 2998, 45.1 µM (inactive); with KM12, 48.9 µM (inactive); in the assay on MDA-MB-435, > 50 µM (inactive); with SW-620, > 50 µM (inactive).

For `O=C(CN1CCN(c2ccccc2)CC1)c1ccc2[nH]c(=O)oc2c1`, the GI50 with SNB-75 was > 100 µM (inactive); in the assay on HCT-15, more than 100 µM; with IGROV-1 it was > 100 µM (inactive); with NCI-H226, > 100 µM (inactive); in the assay on Malme-3M it was > 100 µM (inactive); in the assay on MCF7 it was > 100 µM (inactive). In addition, the GI50 with SK-OV-3, in the assay with PC-3, in the assay with OVCAR-5, with OVCAR-8, with LOX IMVI and with SN12C was > 100 µM (inactive) in each case. The GI50 was > 100 µM (inactive) with KM12, > 100 µM (inactive) in the assay on MDA-MB-435, > 100 µM (inactive) with SW-620 and 70 µM (inactive) in the assay on Hs-578T.

On to `NCCSc1nc2ccccc2c(=O)n1-c1ccccc1`, for which the GI50 was 33.9 µM (inactive) in the assay on SNB-75; 43.8 µM in the assay on HCT-15; 44.7 µM (inactive) with IGROV-1; > 100 µM (inactive) in the assay on NCI-H226; 30.2 µM (inactive) with Malme-3M; 32.6 µM (inactive) with T47D. Further, the GI50 with MCF7 is 90.8 µM (inactive); in the assay with SK-OV-3, > 100 µM (inactive); with PC-3, 27.9 µM (inactive); in the assay with OVCAR-5, > 100 µM (inactive); with OVCAR-8, 56.6 µM (inactive); in the assay on LOX IMVI, 71.9 µM (inactive). Further, the GI50 with A549 was 43.7 µM (inactive); in the assay on SNB-19, 0.236 µM (active); in the assay with SN12C, > 100 µM (inactive); in the assay with HCC 2998 it was 44.3 µM (inactive); in the assay on KM12, 41.7 µM (inactive); with MDA-MB-435 it was 23.9 µM (inactive). For the same compound, in the assay with SW-620, the GI50 is 45.5 µM (inactive).

Consider `O=C1c2ccccc2C(=O)c2sc(Nc3ccc([N+](=O)[O-])cc3)nc21`, for which the GI50 is 7.89 µM (inactive) in the assay on SNB-75; 5.32 µM in the assay on HCT-15; 12.5 µM (inactive) in the assay on IGROV-1; 17.2 µM (inactive) with NCI-H226; 6.25 µM (inactive) in the assay with Malme-3M; 2.18 µM (inactive) with T47D. The GI50 with MCF7 was 9.35 µM (inactive); with SK-OV-3, 21.7 µM (inactive); with PC-3 it was 7.38 µM (inactive); in the assay with OVCAR-5, 13.7 µM (inactive); in the assay on OVCAR-8, 4.66 µM (inactive); in the assay on LOX IMVI it was 2.03 µM (inactive). Further, the GI50 in the assay on A549 was 17.5 µM (inactive); in the assay with SNB-19, 10.3 µM (inactive); in the assay on SN12C it was 3.19 µM (inactive); in the assay with HCC 2998, 16 µM (inactive); with KM12, 9.08 µM (inactive); with SW-620 it was 4 µM (inactive). In addition, the GI50 in the assay on Hs-578T is 1.32 µM (inactive).

Take `[N-]=[N+]=C1N=CN=C1c1nc[nH]n1`: the GI50 was 32.3 µM (inactive) in the assay on SNB-75; 63 µM in the assay with HCT-15; 29 µM (inactive) in the assay on IGROV-1; > 100 µM (inactive) in the assay on NCI-H226; 10.9 µM (inactive) in the assay with Malme-3M; 17.4 µM (inactive) with T47D. The GI50 in the assay on MCF7 was 81.1 µM (inactive); in the assay with SK-OV-3, > 100 µM (inactive); in the assay with PC-3, > 100 µM (inactive); in the assay with OVCAR-8, 21.4 µM (inactive); in the assay with LOX IMVI, 12 µM (inactive); in the assay with A549 it was > 100 µM (inactive). Further, the GI50 in the assay on SNB-19 is 80.2 µM (inactive); in the assay with SN12C it was 20.9 µM (inactive); with HCC 2998 it was 63 µM (inactive); in the assay on KM12, 93.5 µM (inactive); with MDA-MB-435, 31.3 µM (inactive); with SW-620 it was 22.1 µM (inactive).

As to `COc1ccc2c(c1)N=C(N)n1c(nc3ccccc31)S2`, the GI50 was 31.7 µM (inactive) with SNB-75; 25.1 µM with HCT-15; 16.1 µM (inactive) with IGROV-1; 45.8 µM (inactive) in the assay with NCI-H226; 68.9 µM (inactive) with Malme-3M; 15.2 µM (inactive) in the assay with T47D. Moreover, the GI50 is 10.9 µM (inactive) in the assay on MCF7; 30.5 µM (inactive) in the assay on SK-OV-3; 7.24 µM (inactive) in the assay with PC-3; 6.34 µM (inactive) in the assay on OVCAR-5; 15.9 µM (inactive) in the assay with LOX IMVI; 30 µM (inactive) with A549. Moreover, the GI50 is 82 µM (inactive) in the assay with SNB-19; 51.6 µM (inactive) in the assay on SN12C; 48.9 µM (inactive) with HCC 2998; 15.5 µM (inactive) in the assay on KM12; 39.9 µM (inactive) in the assay with SW-620; 58.1 µM (inactive) with Hs-578T.

Regarding `COc1cc(O)c2c(c1)C(=O)C1=C(C2=O)C(O)C[C@@](C)(O)C1` (stereo not given in full), the GI50 with SNB-75 is 3.41 µM (inactive); with HCT-15 it was 0.358 µM; with IGROV-1, 1.79 µM (inactive); with NCI-H226 it was 5.82 µM (inactive); in the assay with Malme-3M it was 0.557 µM (active); with SK-OV-3, 5.9 µM (inactive). Further, the GI50 in the assay on OVCAR-5 is 9.95 µM (inactive); in the assay with OVCAR-8, 1.16 µM (inactive); in the assay on LOX IMVI it was 0.424 µM (active); with A549, 2.34 µM (inactive); in the assay on SNB-19, 4.34 µM (inactive); with SN12C it was 1.29 µM (inactive). Besides, the GI50 in the assay with HCC 2998 is 1.47 µM (inactive); in the assay on KM12 it was 2.47 µM (inactive); with SW-620, 0.441 µM (active).

As to `CC(NC(=O)C(NC(=O)OC(C)(C)C)C(C)C)C(=O)N1CCCC1C(=O)NCC(=O)NC(C(=O)NCC(=O)OCc1ccccc1)C(C)C` (stereo not given) (Boc-VAPGVG-OBn; configuration not given here), the GI50 was 71.3 µM (inactive) with SNB-75; more than 100 µM in the assay with HCT-15; 62.1 µM (inactive) in the assay with IGROV-1; > 100 µM (inactive) in the assay with Malme-3M; > 100 µM (inactive) with T47D; > 100 µM (inactive) in the assay on MCF7. For the same compound, the GI50 with SK-OV-3, with PC-3, in the assay on OVCAR-5, with OVCAR-8, in the assay with LOX IMVI and in the assay on SNB-19 was > 100 µM (inactive) in each case. Also, the GI50 with SN12C, in the assay on HCC 2998, in the assay on MDA-MB-435 and in the assay on SW-620 was > 100 µM (inactive) throughout.
